Test results: publication PMC8151276, “An Integrated Approach toward NanoBRET Tracers for Analysis of GPCR Ligand Engagement” (Molecules, 2021)
Each block holds one compound with its values, some of them ahead of it.

Experiments:
RXFP1 = biological target: T1, RXFP1 (Homo sapiens, UniProt Q9HBX9); test: NanoBRET screen HiBiT-RXFP1 in HEK293; type: binding
T1 construct: purchased Promega (in-house HiBiT-GPCR construct library, NanoBRET)
T1 sequence (Q9HBX9 1-757): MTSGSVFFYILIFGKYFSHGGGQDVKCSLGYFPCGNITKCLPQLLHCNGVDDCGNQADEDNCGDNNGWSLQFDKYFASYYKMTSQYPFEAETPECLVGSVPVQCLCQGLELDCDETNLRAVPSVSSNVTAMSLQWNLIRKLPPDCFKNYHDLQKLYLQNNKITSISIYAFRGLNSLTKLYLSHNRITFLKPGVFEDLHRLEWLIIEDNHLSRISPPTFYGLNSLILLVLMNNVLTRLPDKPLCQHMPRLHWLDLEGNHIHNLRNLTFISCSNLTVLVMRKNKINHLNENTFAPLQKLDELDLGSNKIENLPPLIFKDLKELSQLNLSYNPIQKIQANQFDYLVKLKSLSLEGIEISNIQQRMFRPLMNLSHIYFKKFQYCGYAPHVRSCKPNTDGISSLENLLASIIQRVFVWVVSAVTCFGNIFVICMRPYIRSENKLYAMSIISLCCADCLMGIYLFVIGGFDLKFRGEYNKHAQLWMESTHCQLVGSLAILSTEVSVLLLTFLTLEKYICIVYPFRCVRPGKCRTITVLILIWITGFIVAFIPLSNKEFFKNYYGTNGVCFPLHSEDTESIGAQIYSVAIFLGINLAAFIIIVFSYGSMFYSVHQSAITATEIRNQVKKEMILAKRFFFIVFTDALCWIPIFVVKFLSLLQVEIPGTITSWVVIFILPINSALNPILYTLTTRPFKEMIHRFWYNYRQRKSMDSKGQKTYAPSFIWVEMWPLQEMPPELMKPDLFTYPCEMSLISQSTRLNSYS
Procedure: (§1) Each tracer candidate was screened across the entire library of HiBiT-GPCR constructs using NanoBRET as the detection modality. As depicted in Figure 4A, the specificity of interactions was evaluated through decrease in BRET due to competitive displacement of a bound tracer by excess parental compound. Each tracer was analyzed for binding to each HiBiT-GPCR fusion in the absence and in the presence of competing parental compound. Briefly, HEK293 cells were transfected with HiBiT-GPCR constructs diluted into promoterless DNA to reduce expression and maximize translocation to the cell surface. Each tracer candidate was then screened at concentrations of 1 μM and 0.1 μM across cells expressing these fusions. Cells were treated for 1.5 h with tracer either alone or in the presence of 20 μM competing parental compound (i.e., control). BRET was measured upon addition of purified LgBiT and subsequent complementation with HiBiT genetically fused to a GPCR. The specificity of interactions was assessed through a decrease in BRET signal due to competitive displacement of the bound tracer. To further gauge the robustness of these interactions, the fold response over the control (i.e., BRETtracer/BRETcontrol) was calculated. We chose a 1.5-fold response, which translates to ≥7-fold signal over noise as the minimal threshold required to score an interaction as positive.
(§2) HiBiT-GPCR DNA constructs were diluted in 10 mM Tris pH 8 to a final concentration of 0.01 μg/μL, arrayed in 96-well plates and stored at −20 °C. For transfection, HEK293 cells were suspended in Opti-MEM (without phenol red) supplemented with 2% fetal bovine serum (Seradigm) and 100 units/mL penicillin–streptomycin (Gibco) at a final concentration of 220,000 cells/mL and dispensed into white 96-well plates at 90 μL/well. Subsequent transfections and screens were carried using an Agilent Bravo Automated Liquid Handling Platform. First, the 96-well HiBiT DNA arrays were diluted 25-fold in Opti-MEM (without serum or phenol red) to a final concentration of 0.0004 μg/μL and 20 μL of the diluted DNAs were transferred into new 96-well plates. Next, promoterless carrier DNA (1 μg/μL) was diluted 25-fold (0.04 μg/μL) and then dispensed into the diluted arrays at 20 μL/well. Following brief mixing, Viafect transfection reagent (Promega) diluted 16-fold into Opti-MEM was dispensed into the plates at 40 μL/well. After mixing by pipetting, plates were incubated for 10 min on the pipetting station deck. The DNA-transfection reagent complexes were then added to plates containing cells. To facilitate the screen, 10 μL of DNA-transfection reagent complexes were added in duplicates to the top 4 and bottom 4 rows, resulting in two identical 48-well arrays per plate. Plates with transfected cells were incubated for 18–20 h at 37 °C/5% CO2. A screen of each tracer across the entire library using two different concentrations requires duplicate plates of transfected cells. Depending on the number of tracers being screened, transfections can be scaled up using the same ratios. The next day, for each tracer, four 20× screening solutions in tracer dilution buffer (Promega) were prepared: two duplicates at final concentration of 20 μM and two duplicates at a final concentration of 2 μM. […] The four resulting solutions were diluted 4-fold in Opti-MEM without serum or phenol red to generate 5× solutions (5 µM and 0.5 µM tracer +/− 100 μM competing compound). To screen the library, a BioTek MultiFlo FX liquid dispenser was used to dispense 22.5 µL of tracer solution to the top 4 rows and 22.5 µL tracer + competing compound solution to the 4 bottom rows. Plates were briefly mixed on an orbital shaker and incubated for 1.5 h at room temperature. […] Plates were briefly mixed on an orbital shaker and incubated for 15 min to allow complementation.

CNR2 = biological target: T2, CNR2 (Homo sapiens, UniProt P34972); test: NanoBRET screen HiBiT-CNR2 in HEK293; type: binding
T2 construct: purchased Promega (in-house HiBiT-GPCR construct library, NanoBRET)
T2 sequence (P34972 whole entry): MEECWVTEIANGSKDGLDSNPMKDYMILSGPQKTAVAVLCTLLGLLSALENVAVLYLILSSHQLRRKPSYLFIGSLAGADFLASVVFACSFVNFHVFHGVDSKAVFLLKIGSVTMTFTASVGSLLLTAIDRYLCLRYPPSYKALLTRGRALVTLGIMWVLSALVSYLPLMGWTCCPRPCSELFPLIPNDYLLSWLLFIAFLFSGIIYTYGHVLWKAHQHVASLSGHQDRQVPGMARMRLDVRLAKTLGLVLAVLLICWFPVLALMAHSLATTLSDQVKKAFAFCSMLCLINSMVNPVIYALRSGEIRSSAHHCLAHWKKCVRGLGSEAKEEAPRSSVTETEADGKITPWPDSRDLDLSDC
Procedure: as §1, §2

NanoBRET Fold Response (RXFP1; RXFP1, 0.1μM): 1.16
NanoBRET Fold Response (RXFP1; RXFP1, 1μM): 0.49
NanoBRET Fold Response (CNR2; CNR2, 0.1μM): 1.04
NanoBRET Fold Response (CNR2; CNR2, 1μM): 0.91
Structure (SMILES): CCOC(=O)c1cc(C#N)c(N2CCC(C(=O)NS(=O)(=O)Cc3ccccc3/C=C/C(=O)NCCNC(=O)CCc3ccc4n3[B-](F)(F)[N+]3=C(c5ccc[nH]5)C=CC3=C4)CC2)nc1C [AZD1283-1-NB590]

NanoBRET Fold Response (RXFP1; RXFP1, tracer 0.1μM): 0.79
NanoBRET Fold Response (RXFP1; RXFP1, tracer 1μM): 1.28
NanoBRET Fold Response (CNR2; CNR2, tracer 0.1μM): 1.00
NanoBRET Fold Response (CNR2; CNR2, tracer 1μM): 1.16
Structure (SMILES): N#CN=C(NCCCOc1cccc(CN2CCCCC2)c1)NCCNC(=O)CCOCCOCCOCCOCCNC(=O)CCc1ccc2n1[B-](F)(F)[N+]1=C(c3ccc[nH]3)C=CC1=C2 [Aminopotentidine-2-NB590]

Structure (SMILES): CN(C)CCC=C1c2ccccc2CCc2ccc(C(=O)NCCNC(=O)CCOCCOCCOCCOCCNC(=O)CCc3ccc4n3[B-](F)(F)[N+]3=C(c5ccc[nH]5)C=CC3=C4)cc21 [Amitriptyline-b-2-NB590]
NanoBRET Fold Response (RXFP1; tracer at 0.1μM): 0.90
NanoBRET Fold Response (RXFP1; tracer at 1μM): 1.13
NanoBRET Fold Response (CNR2; CNR2, tracer 0.1μM): 0.96
NanoBRET Fold Response (CNR2; CNR2, tracer 1μM): 1.05

NanoBRET Fold Response (RXFP1; 0.1μM tracer): 1.38
NanoBRET Fold Response (RXFP1; 1μM tracer): 1.20
NanoBRET Fold Response (CNR2; 0.1μM tracer): 0.98
NanoBRET Fold Response (CNR2; 1μM tracer): 1.01
Structure (SMILES): COc1ccc2c(n1)c(CCNC(C)=O)cn2CCNC(=O)CCc1ccc2n1[B-](F)(F)[N+]1=C(c3ccc[nH]3)C=CC1=C2 [Azamelatonin-1-NB590]

NanoBRET Fold Response (RXFP1; 0.1μM tracer): 1.23
NanoBRET Fold Response (RXFP1; 1μM tracer): 1.24
NanoBRET Fold Response (CNR2; 0.1μM tracer): 0.97
NanoBRET Fold Response (CNR2; 1μM tracer): 1.06
Structure (SMILES): COc1ccc2[nH]c(-c3ccc(CNC(=O)CCOCCOCCOCCOCCNC(=O)CCc4ccc5n4[B-](F)(F)[N+]4=C(c6ccc[nH]6)C=CC4=C5)cc3)c(CCNC(C)=O)c2n1 [AzomelatoninICO9-2-NB590]

NanoBRET Fold Response (RXFP1; RXFP1, 0.1μM tracer): 1.12
NanoBRET Fold Response (RXFP1; RXFP1, 1μM tracer): 1.23
NanoBRET Fold Response (CNR2; CNR2, 0.1μM tracer): 1.06
NanoBRET Fold Response (CNR2; CNR2, 1μM tracer): 1.19
Structure (SMILES): O=C(CCOCCOCCOCCOCCNC(=O)CCc1ccc2n1[B-](F)(F)[N+]1=C(c3ccc[nH]3)C=CC1=C2)NCCCN1CCN(C2=Nc3cc(Cl)ccc3Nc3ccccc32)CC1 [Clozapine-a-2-NB590]

Structure (SMILES): CN1CCN(C2=Nc3cc(Cl)ccc3Nc3ccc(CNC(=O)CCOCCOCCOCCOCCNC(=O)CCc4ccc5n4[B-](F)(F)[N+]4=C(c6ccc[nH]6)C=CC4=C5)cc32)CC1 [Clozapine-b-2-NB590]
NanoBRET Fold Response (RXFP1; RXFP1, 0.1μM tracer): 0.90
NanoBRET Fold Response (RXFP1; RXFP1, 1μM tracer): 0.75
NanoBRET Fold Response (CNR2; CNR2, 0.1μM tracer): 1.05

Structure (SMILES): CN1CCN(C2=Nc3cc(Cl)ccc3N(CC(=O)NCCOCCOCCOCCOCCNC(=O)CCc3ccc4n3[B-](F)(F)[N+]3=C(c5ccc[nH]5)C=CC3=C4)c3ccccc32)CC1 [Clozapine-c-2-NB590]
NanoBRET Fold Response (RXFP1; RXFP1, 0.1μM tracer): 0.85
NanoBRET Fold Response (RXFP1; RXFP1, 1μM tracer): 1.27
NanoBRET Fold Response (CNR2; CNR2, 0.1μM tracer): 0.96
NanoBRET Fold Response (CNR2; CNR2, 1μM tracer): 1.13

Structure (SMILES): O=C(CCOCCOCCOCCOCCNC(=O)CCc1ccc2n1[B-](F)(F)[N+]1=C(c3ccc[nH]3)C=CC1=C2)NCCCN1CCN(C2=Nc3ccccc3Oc3ccc(Cl)cc32)CC1 [Loxapine-a-2-NB590]
NanoBRET Fold Response (RXFP1; RXFP1, tracer 0.1μM): 0.94
NanoBRET Fold Response (RXFP1; RXFP1, tracer 1μM): 0.80
NanoBRET Fold Response (CNR2; CNR2, tracer 0.1μM): 0.33
NanoBRET Fold Response (CNR2; CNR2, tracer 1μM): 1.25

Structure (SMILES): COc1ccccc1N1CCN(CCCCN2C(=O)c3ccc(CNC(=O)CCOCCOCCOCCOCCNC(=O)CCc4ccc5n4[B-](F)(F)[N+]4=C(c6ccc[nH]6)C=CC4=C5)cc3C2=O)CC1 [NAN-190-2-NB590]
NanoBRET Fold Response (RXFP1; RXFP1, tracer 0.1μM): 0.78
NanoBRET Fold Response (RXFP1; RXFP1, tracer 1μM): 0.92
NanoBRET Fold Response (CNR2; CNR2, tracer 0.1μM): 0.81

Structure (SMILES): COc1ccccc1N1CCN(CCCCN2C(=O)c3ccc(CNC(=O)CCOCCNC(=O)c4ccc(CNC(=O)CCc5ccc6n5[B-](F)(F)[N+]5=C(c7ccc[nH]7)C=CC5=C6)cc4)cc3C2=O)CC1 [NAN-190-3-NB590]
NanoBRET Fold Response (RXFP1; RXFP1, tracer 0.1μM): 0.88
NanoBRET Fold Response (RXFP1; RXFP1, tracer 1μM): 0.90
NanoBRET Fold Response (CNR2; CNR2, tracer 0.1μM): 1.09
NanoBRET Fold Response (CNR2; CNR2, tracer 1μM): 1.15

Structure (SMILES): O=C(CCc1ccc2n1[B-](F)(F)[N+]1=C(c3ccc[nH]3)C=CC1=C2)NCc1ccc(C(=O)NCCOCCC(=O)N[C@@H]2CC[C@@]3(O)[C@H]4Cc5ccc(O)c6c5[C@@]3(CCN4CC3CC3)[C@H]2O6)cc1 [Naltrexone-3-NB590]
NanoBRET Fold Response (RXFP1; RXFP1, tracer 0.1μM): 1.31
NanoBRET Fold Response (RXFP1; RXFP1, tracer 1μM): 1.24
NanoBRET Fold Response (CNR2; CNR2, tracer 0.1μM): 0.92
NanoBRET Fold Response (CNR2; CNR2, tracer 1μM): 0.91
